Test results from patent publication US11013235B2 (priority 2015, dated 2021).
Where two headings read alike, the source gives them in different places.

Legend:
Format in all cases: in vivo
[1] = test system: Rhizoctonia solani; assay: Control of Rhizoctonia solani disease in tomato (Rs-SI); conditions: 1 μM spraying every 24 hours for one week, water control 96
[2] = test system: Botrytis cinerea; assay: Control of Botrytis cinerea disease in Arabidopsis (Bc-At); conditions: 1 μM spraying every 24 hours for one week, water control 8.7
Outline: (§1)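 Each group of fifty plants is inoculated with the pathogen and afterwards sprayed with 1 μM compound once every 24 hours over one week. Water-sprayed plants serve as the control. Disease is scored as mortality (Nocardia), symptomatic leaf percentage (Alternaria) or lesion size by diameter (Botrytis).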

[3] = test system: Phytophthora parasitica; assay: Control of Phytophthora parasitica disease in tobacco (Pp-Nt); conditions: 1 μM spraying every 24 hours for one week, water control 91
[4] = test system: Alternaria solani; assay: Control of Alternaria solani disease in tomato (As-SI); conditions: 1 μM spraying every 24 hours for one week, water control 68
Outline: as §1

[5] = test system: Botrytis cinerea; assay: Control of Botrytis cinerea disease in tobacco (Bc-Nt); conditions: 1 μM spraying every 24 hours for one week, water control 6.7
Outline: as §1

[6] = test system: Candidatus 'Liberibacter asiaticus'; conditions: spraying every 15 days, 12 months after treatment, Citrus sinensis with HLB
[7] = test system: Radopholus similis; assay: Nematode control, nodules per plant: Radopholus similis; conditions: 1 μM foliar application every 5 days, evaluation 35 days after, control 45
Outline: (§2)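 Each compound was dissolved in ethanol, then diluted with water to 1 μM. Only the leaves were sprayed, with applications repeated every 5 days on ten plants per treatment. After 35 days, nodules per plant were quantified.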

[8] = test system: Botrytis cinerea; assay: Control of Botrytis cinerea disease in tomato (Bc-SI); conditions: 1 μM spraying every 24 hours for one week, water control 7.4
Outline: as §1

[9] = test system: Rhizoctonia solani; assay: Control of Rhizoctonia solani disease in tobacco (Rs-Nt); conditions: 1 μM spraying every 24 hours for one week, water control 87
[10] = test system: Pratylenchus coffeae; assay: Nematode control, nodules per plant: Pratylenchus coffeae; conditions: 1 μM foliar application every 5 days, evaluation 35 days after, control 42
Outline: as §2

[11] = test system: Meloidogyne incognita; assay: Nematode control, nodules per plant: Meloidogyne incognita; conditions: 1 μM foliar application every 5 days, evaluation 35 days after, control 34
Outline: as §2

[12] = test system: Nocardia sp; assay: Control of Nocardia sp disease in tobacco (N-Nt); conditions: 1 μM spraying every 24 hours for one week, water control 58
Outline: as §1

Compound | Rs-SI: percentage of mortality [1] | Bc-At: mean of the diameter of the lesion [2] | Pp-Nt: percentage of mortality [3] | As-SI: percentage of leaves with the disease symptoms [4] | Bc-Nt: mean of the diameter of the lesion [5] | Titers of the bacterium ([6]; 0.001 μM) | Titers of the bacterium ([6]; 0.01 μM) | Titers of the bacterium ([6]; 1 μM) | Titers of the bacterium ([6]; 5 μM) | Titers of the bacterium ([6]; 10 μM) | Rs: number of nodules per plant [7] | Bc-SI: mean of the diameter of the lesion [8] | Rs-Nt: percentage of mortality [9] | Pc: number of nodules per plant [10] | Mi: number of nodules per plant [11] | N-Nt: percentage of mortality [12]
Cc1c(CCC(=O)NCC(O)CO)c(=O)oc2cc3occ(-c4ccc5ccccc5c4)c3cc12 (stereo not shown) [IL, N-(2,3-dihydroxypropyl)-3-[4-methyl-6-(naphthalen-2-yl)-2-oxo-2H-furo[3,2-g]chromen-3-yl]propanamide] | 0% | 0.7 mm | 0% | 7% | 0.9 mm | 578 copies per reaction | 0 copies per reaction | 0 copies per reaction | 78 copies per reaction | 3574 copies per reaction | 0 | 1.2 mm | 0% | 0 | 0 | 0%
Cc1c2c(oc(=O)c1CC(=O)NCC(O)CO)C=CC1C(C3CCCC3)=COC21 (stereo not shown) [IIK, 2-{5-cyclopentyl-13-methyl-11-oxo-3,10-dioxatricyclo[7.4.0.0^{2,6}]trideca-1(9),4,7,12-tetraen-12-yl}-N-(2,3-dihydroxypropyl)acetamide] | 2% | 1.2 mm | 0% | 8% | 0.3 mm | 578 copies per reaction | 8 copies per reaction | 0 copies per reaction | 78 copies per reaction | 2365 copies per reaction | 0 | 0.8 mm | 0% | 14 | 0 | 1%
O=C(c1cnc(N2CCN(n3cccc3)CC2)nc1)N1CC2CC(O)C(O)CC2C1 (stereo not shown) [IIIK, 2-({2-[4-(1H-pyrrol-1-yl)piperazin-1-yl]pyrimidin-5-yl}carbonyl)-octahydro-1H-isoindole-5,6-diol] | 2% | 0.5 mm | 0% | 8% | 0.9 mm | 635 copies per reaction | 0 copies per reaction | 3 copies per reaction | 65 copies per reaction | 8420 copies per reaction | 0 | 0.8 mm | 0% | 14 | 0 | 1%
CN1c2cc(C(=O)NC3CCCCC3)ccc2OCC1CC(=O)NC(CO)CO (stereo not shown) [VF, N-cyclohexyl-3-{[(1,3-dihydroxypropan-2-yl)carbamoyl]methyl}-4-methyl-3,4-dihydro-2H-1,4-benzoxazine-6-carboxamide] | 3% | 1.5 mm | 1% | 1% | 1.5 mm | 985 copies per reaction | 1 copies per reaction | 0 copies per reaction | 98 copies per reaction | 2365 copies per reaction | 1 | 2.5 mm | 2% | 1 | 2 | 1%
